According to patent US20250171437A1 (Agios Pharmaceuticals,Inc., priority 2022, published 2025):

Target: T1, human PAH with the R408W mutation (A375 R408W cells) (Homo sapiens, UniProt P00439, R408W)
T1 construct: expressed in transfected cells
T1 sequence (P00439 1-452 R408W): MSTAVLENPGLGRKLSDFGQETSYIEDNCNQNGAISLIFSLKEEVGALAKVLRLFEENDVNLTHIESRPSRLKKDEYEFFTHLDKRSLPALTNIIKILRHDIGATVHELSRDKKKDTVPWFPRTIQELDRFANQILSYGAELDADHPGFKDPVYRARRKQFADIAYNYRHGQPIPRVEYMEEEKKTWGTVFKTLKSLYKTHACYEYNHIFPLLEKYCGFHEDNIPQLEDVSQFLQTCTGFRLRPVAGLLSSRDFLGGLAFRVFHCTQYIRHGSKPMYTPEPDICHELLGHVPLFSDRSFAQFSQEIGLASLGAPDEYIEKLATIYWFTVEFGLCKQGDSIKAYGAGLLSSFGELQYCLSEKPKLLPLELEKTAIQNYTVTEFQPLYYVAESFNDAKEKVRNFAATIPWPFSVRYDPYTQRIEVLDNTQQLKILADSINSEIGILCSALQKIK
Assay: Cell Based Phenylalanine Flux Assay
Conditions: A375 cells expressing R408W PAH; 24 hrs with compound, then 20 μM sepiapterin and 800 μM 13C9,15N-Phenylalanine for 4 hours; 13C-Tyrosine by LC-MS; average where tested multiple times
Method: Cells expressing R408W PAH were made by transducing A375 cells with lentivirus encoding human PAH with the R408W mutation in pLVX-Puro, then selecting with puromycin until stable cell lines were generated. A375 R408W cells were seeded into 96 well plates in DMEM+10% FBS at a density of 40,000 cells/well one hour prior to compound addition. Compounds were resuspended in DMSO, and 2-fold serial dilutions were performed to generate a 10-point dose curve. Compounds were added to plated cells in a total volume of 100 μl, and a final DMSO concentration of 0.5%. Each compound was tested in duplicate. Following compound addition, cells were placed in a 5% CO2, 37° C. tissue culture incubator for 24 hrs. After the incubation period, 20 μM sepiapterin and 800 μM 13C9,15N-Phenylalanine were added. After 4 hours, cell media was removed. An aliquot of 10 μl of cell media was combined with 200 μl of extraction buffer (80% acetonitrile/20% H2O) for each well. Determination of ^13C-Tyrosine concentration was assessed by liquid chromatography mass spectrometry.
Specific compounds disclosed herein were tested in the foregoing assay and they were determined to have an AC50 according to the following scores: (A) less than or equal to 0.500 μM, (B) greater than 0.500 and less than […], (C) greater than or equal to 1.000 and less than 5.000 μM, (D) greater than or equal to 5.000 μM, (E) no fit, and (NT) not tested, as shown below. Where a compound was tested multiple times, the average value of the tests is reported.

Row | AC50 [µM] | SMILES
1 | ≥ 5 | NCc1ccc2c(C(=O)N3CCc4[nH]cnc4C3c3nc4cc(F)ccc4o3)cnn2c1 (stereo not shown) [listing 1 of 2 here]
2 | 1 to 5 | Cc1cc(-c2nnc(C(=O)N3CCc4[nH]cnc4C3c3nc4cc(F)ccc4o3)o2)nn1C (stereo not shown)
3 | ≥ 5 | CNc1ccc2c(C(=O)N3CCc4[nH]cnc4C3c3nc4cc(F)ccc4o3)cnn2c1 (stereo not shown) [listing 1 of 2 here]
4 | ≥ 5 | O=C(C1CN(c2ccccn2)C1)N1CCc2[nH]cnc2C1c1nc2cc(F)ccc2o1 (stereo not shown) [listing 1 of 2 here]
5 | ≥ 5 | O=C(c1cncs1)N1CCc2[nH]cnc2C1c1nc2cc(F)ccc2o1 (stereo not shown) [listing 1 of 2 here]
6 | ≥ 5 | COC(C)(C)c1nc(C)c(C(=O)N2CCc3[nH]cnc3C2c2nc3cc(F)ccc3o2)o1 (stereo not shown) [listing 1 of 2 here]
7 | ≥ 5 | Cc1ncoc1C(=O)N1CCc2[nH]cnc2C1c1nc2cc(F)ccc2o1 (stereo not shown) [listing 1 of 2 here]
8 | ≥ 5 | COCc1nnc(C(=O)N2CCc3[nH]cnc3C2c2nc3cc(F)ccc3o2)o1 (stereo not shown) [listing 1 of 2 here]
9 | ≥ 5 | O=C(c1cnn2cc(N3CCOCC3)ccc12)N1CCc2[nH]cnc2C1c1nc2cc(F)ccc2o1 (stereo not shown) [listing 1 of 2 here]
10 | 1 to 5 | Cn1nc(C(F)F)cc1C(=O)N1CCc2[nH]cnc2C1c1nc2cc(F)ccc2o1 (stereo not shown)
11 | 1 to 5 | Cn1cc(C(=O)N2CCc3[nH]cnc3C2c2nc3cc(F)ccc3o2)c(Cl)n1 (stereo not shown)
12 | 1 to 5 | O=C(c1nnc(-c2cnn(C(F)F)c2)o1)N1CCc2[nH]cnc2C1c1nc2cc(F)ccc2o1 (stereo not shown)
13 | 1 to 5 | Cn1ncc(C(=O)N2CCc3[nH]cnc3C2c2nc3cc(F)ccc3o2)c1C(F)F (stereo not shown) [listing 2 of 2 here]
14 | 1 to 5 | O=C(c1cnn2cc(N3CCC4(CC3)CC4)ccc12)N1CCc2[nH]cnc2C1c1nc2cc(F)ccc2o1 (stereo not shown) [listing 2 of 2 here]
15 | 1 to 5 | O=C(c1cncs1)N1CCc2[nH]cnc2C1c1nc2cc(F)ccc2o1 (stereo not shown) [listing 2 of 2 here]
16 | 1 to 5 | O=C(c1nnc(-c2cnn(CC(F)(F)F)c2)o1)N1CCc2[nH]cnc2C1c1nc2cc(F)ccc2o1 (stereo not shown)
17 | 1 to 5 | O=C(c1nnc(-c2ccc(C(F)(F)F)cn2)o1)N1CCc2[nH]cnc2C1c1nc2cc(F)ccc2o1 (stereo not shown)
18 | 1 to 5 | COCCc1ccc2c(C(=O)N3CCc4[nH]cnc4C3c3nc4cc(F)ccc4o3)cnn2c1 (stereo not shown)
19 | 1 to 5 | O=C(c1cnn2cc(N3CCN(CC(F)(F)F)CC3)ccc12)N1CCc2[nH]cnc2C1c1nc2cc(F)ccc2o1 (stereo not shown) [listing 2 of 2 here]
20 | ≥ 5 | O=C(c1cnn2cc(F)ccc12)N1CCc2[nH]cnc2C1c1nc2cc(F)ccc2o1 (stereo not shown)
21 | ≥ 5 | O=C(c1cnco1)N1CCc2[nH]cnc2C1c1nc2ccc(Br)cc2o1 (stereo not shown)
22 | 1 to 5 | O=C(c1cnc(-c2ccccn2)s1)N1CCc2[nH]cnc2C1c1nc2ccc(Br)cc2o1 (stereo not shown)
23 | ≥ 5 | CNCCc1ccc2c(C(=O)N3CCc4[nH]cnc4C3c3nc4cc(F)ccc4o3)cnn2c1 (stereo not shown)
24 | ≥ 5 | CNCc1ccc2c(C(=O)N3CCc4[nH]cnc4C3c3nc4cc(F)ccc4o3)cnn2c1 (stereo not shown)
25 | 1 to 5 | CCOC(=O)N1CCN(c2ccc3c(C(=O)N4CCc5[nH]cnc5C4c4nc5cc(F)ccc5o4)cnn3c2)CC1 (stereo not shown) [listing 2 of 2 here]
26 | 1 to 5 | COC(=O)N1CC(C(=O)N2CCc3[nH]cnc3C2c2nc3cc(F)ccc3o2)C1 (stereo not shown)

Continued, compound first:

Row | SMILES | AC50 [µM]
27 | Cc1nc(C2(O)CC2)oc1C(=O)N1CCc2[nH]cnc2C1c1nc2cc(F)ccc2o1 (stereo not shown) [listing 1 of 2 here] | ≥ 5
28 | Cc1nc(C2(O)CCC2)oc1C(=O)N1CCc2[nH]cnc2C1c1nc2cc(F)ccc2o1 (stereo not shown) [listing 1 of 2 here] | ≥ 5
29 | CC(C)(O)C1CCN(c2ccc3c(C(=O)N4CCc5[nH]cnc5C4c4nc5cc(F)ccc5o4)cnn3c2)CC1 (stereo not shown) [listing 1 of 2 here] | ≥ 5
30 | O=C(c1nnc(-c2cnn(S(=O)(=O)C3CC3)c2)o1)N1CCc2[nH]cnc2C1c1nc2cc(F)ccc2o1 (stereo not shown) [listing 1 of 2 here] | ≥ 5
31 | Cn1ncc(C(=O)N2CCc3[nH]cnc3C2c2nc3cc(F)ccc3o2)c1C(F)F (stereo not shown) [listing 1 of 2 here] | ≥ 5
32 | O=C(c1cn[nH]c1C(F)F)N1CCc2[nH]cnc2C1c1nc2cc(F)ccc2o1 (stereo not shown) [listing 1 of 2 here] | ≥ 5
33 | O=C(c1cnn(-c2ccccn2)c1Cl)N1CCc2[nH]cnc2C1c1nc2cc(F)ccc2o1 (stereo not shown) [listing 1 of 2 here] | ≥ 5
34 | O=C(c1cnn2cc(N3CCC4(CC3)CC4)ccc12)N1CCc2[nH]cnc2C1c1nc2cc(F)ccc2o1 (stereo not shown) [listing 1 of 2 here] | ≥ 5
35 | Nc1ccc2c(C(=O)N3CCc4[nH]cnc4C3c3nc4cc(F)ccc4o3)cnn2c1 (stereo not shown) [listing 1 of 2 here] | ≥ 5
36 | O=C(c1cnco1)N1CCc2[nH]cnc2C1c1nc2cc(F)ccc2o1 (stereo not shown) [listing 1 of 2 here] | ≥ 5
37 | Cn1cc(-c2ncc(C(=O)N3CCc4[nH]cnc4C3c3nc4cc(F)ccc4o3)o2)cn1 (stereo not shown) [listing 1 of 2 here] | ≥ 5
38 | O=C(c1nnc(-c2cc[nH]n2)o1)N1CCc2[nH]cnc2C1c1nc2cc(F)ccc2o1 (stereo not shown) | 1 to 5
39 | O=C(c1cnn2cc(N3CCN(CC(F)(F)F)CC3)ccc12)N1CCc2[nH]cnc2C1c1nc2cc(F)ccc2o1 (stereo not shown) [listing 1 of 2 here] | ≥ 5
40 | Cc1nc(C(C)O)oc1C(=O)N1CCc2[nH]cnc2C1c1nc2cc(F)ccc2o1 (stereo not shown) | ≥ 5
41 | CN(C)Cc1ncc(C(=O)N2CCc3[nH]cnc3C2c2nc3cc(F)ccc3o2)o1 (stereo not shown) | ≥ 5
42 | CCOC(=O)N1CCN(c2ccc3c(C(=O)N4CCc5[nH]cnc5C4c4nc5cc(F)ccc5o4)cnn3c2)CC1 (stereo not shown) [listing 1 of 2 here] | ≥ 5
43 | NCc1ccc2c(C(=O)N3CCc4[nH]cnc4C3c3nc4cc(F)ccc4o3)cnn2c1 (stereo not shown) [listing 2 of 2 here] | 1 to 5
44 | Cc1nc(C2(O)CCC2)oc1C(=O)N1CCc2[nH]cnc2C1c1nc2cc(F)ccc2o1 (stereo not shown) [listing 2 of 2 here] | 1 to 5
45 | Cc1nc(C2(O)CC2)oc1C(=O)N1CCc2[nH]cnc2C1c1nc2cc(F)ccc2o1 (stereo not shown) [listing 2 of 2 here] | 1 to 5
46 | CC(C)(O)C1CCN(c2ccc3c(C(=O)N4CCc5[nH]cnc5C4c4nc5cc(F)ccc5o4)cnn3c2)CC1 (stereo not shown) [listing 2 of 2 here] | 1 to 5
47 | O=C(c1cn(-c2ccccn2)nc1Cl)N1CCc2[nH]cnc2C1c1nc2cc(F)ccc2o1 (stereo not shown) | 1 to 5
48 | Cn1nc(C(C)(C)O)cc1C(=O)N1CCc2[nH]cnc2C1c1nc2cc(F)ccc2o1 (stereo not shown) | ≥ 5
49 | O=C(c1nnc(-c2cnn(CC(F)F)c2)o1)N1CCc2[nH]cnc2C1c1nc2cc(F)ccc2o1 (stereo not shown) | 1 to 5
50 | O=C(c1nnc(-c2cnn(S(=O)(=O)C3CC3)c2)o1)N1CCc2[nH]cnc2C1c1nc2cc(F)ccc2o1 (stereo not shown) [listing 2 of 2 here] | 1 to 5
51 | O=C(c1nnc(C2CC(F)(F)C2)o1)N1CCc2[nH]cnc2C1c1nc2cc(F)ccc2o1 (stereo not shown) | 1 to 5

Row | SMILES | AC50 [µM]
52 | Cc1ccc2nc(C3c4nc[nH]c4CCN3C(=O)c3nnc(-c4ccc(F)cn4)o3)oc2c1 (stereo not shown) | 1 to 5
53 | O=C(c1cn[nH]c1C(F)F)N1CCc2[nH]cnc2C1c1nc2cc(F)ccc2o1 (stereo not shown) [listing 2 of 2 here] | 1 to 5
54 | O=C(c1cnn(-c2ccccn2)c1Cl)N1CCc2[nH]cnc2C1c1nc2cc(F)ccc2o1 (stereo not shown) [listing 2 of 2 here] | 1 to 5
55 | O=C(c1cnn2cc(Cl)ccc12)N1CCc2[nH]cnc2C1c1nc2cc(F)ccc2o1 (stereo not shown) | 1 to 5
56 | CNc1ccc2c(C(=O)N3CCc4[nH]cnc4C3c3nc4cc(F)ccc4o3)cnn2c1 (stereo not shown) [listing 2 of 2 here] | 1 to 5
57 | Nc1ccc2c(C(=O)N3CCc4[nH]cnc4C3c3nc4cc(F)ccc4o3)cnn2c1 (stereo not shown) [listing 2 of 2 here] | 1 to 5
58 | COCCNc1nnc(C(=O)N2CCc3[nH]cnc3C2c2nc3cc(F)ccc3o2)o1 (stereo not shown) | ≥ 5
59 | O=C(C1CN(CC(F)(F)F)C1)N1CCc2[nH]cnc2C1c1nc2cc(F)ccc2o1 (stereo not shown) | 1 to 5
60 | O=C(c1ccnn1-c1ccccn1)N1CCc2[nH]cnc2C1c1nc2cc(F)ccc2o1 (stereo not shown) | 1 to 5
61 | O=C(C1CN(c2ccccn2)C1)N1CCc2[nH]cnc2C1c1nc2cc(F)ccc2o1 (stereo not shown) [listing 2 of 2 here] | 1 to 5
62 | Cn1ncnc1C(=O)N1CCc2[nH]cnc2C1c1nc2cc(F)ccc2o1 (stereo not shown) | 1 to 5
63 | Cn1nccc1C(=O)N1CCc2[nH]cnc2C1c1nc2cc(F)ccc2o1 (stereo not shown) | 1 to 5
64 | O=C(c1cnco1)N1CCc2[nH]cnc2C1c1nc2cc(F)ccc2o1 (stereo not shown) [listing 2 of 2 here] | 1 to 5
65 | Cn1cc(-c2ncc(C(=O)N3CCc4[nH]cnc4C3c3nc4cc(F)ccc4o3)o2)cn1 (stereo not shown) [listing 2 of 2 here] | 1 to 5
66 | COC(C)(C)c1nc(C)c(C(=O)N2CCc3[nH]cnc3C2c2nc3cc(F)ccc3o2)o1 (stereo not shown) [listing 2 of 2 here] | 1 to 5
67 | Cc1ncoc1C(=O)N1CCc2[nH]cnc2C1c1nc2cc(F)ccc2o1 (stereo not shown) [listing 2 of 2 here] | 1 to 5
68 | O=C(c1nnc(-c2cn[nH]c2)o1)N1CCc2[nH]cnc2C1c1nc2cc(F)ccc2o1 (stereo not shown) | 1 to 5
69 | CC(C)(F)c1nnc(C(=O)N2CCc3[nH]cnc3C2c2nc3cc(F)ccc3o2)o1 (stereo not shown) | 1 to 5
70 | O=C(c1nnc(-c2ncccc2F)o1)N1CCc2[nH]cnc2C1c1nc2cc(F)ccc2o1 (stereo not shown) | 1 to 5
71 | Cc1n[nH]cc1-c1nnc(C(=O)N2CCc3[nH]cnc3C2c2nc3cc(F)ccc3o2)o1 (stereo not shown) | 1 to 5
72 | COCc1nnc(C(=O)N2CCc3[nH]cnc3C2c2nc3cc(F)ccc3o2)o1 (stereo not shown) [listing 2 of 2 here] | 1 to 5
73 | O=C(c1cnn2cc(N3CCOCC3)ccc12)N1CCc2[nH]cnc2C1c1nc2cc(F)ccc2o1 (stereo not shown) [listing 2 of 2 here] | 1 to 5
74 | CN(C)Cc1nnc(C(=O)N2CCc3[nH]cnc3C2c2nc3cc(F)ccc3o2)o1 (stereo not shown) | 1 to 5
75 | CC(C)(C)OC(=O)N1CC(c2nnc(C(=O)N3CCc4[nH]cnc4C3c3nc4cc(F)ccc4o3)o2)C1 (stereo not shown) | 1 to 5
76 | CC(C)(C)OC(=O)N1CCN(c2ccc3c(C(=O)N4CCc5[nH]cnc5C4c4nc5cc(F)ccc5o4)cnn3c2)CC1 (stereo not shown) | 1 to 5
